System: Acinetobacter baumannii strains
Test: Antibiotic susceptibility test (CLSI disk diffusion test method, read per CLSI 2016)
Type: cell-based
Design: antibiotic susceptibility test value / susceptibility test value (number given before S/I/R) / antibiotic susceptibility value: unit not given here
Experimental: Strain identification was performed using a kit such as AT 32 GN system (bioMérieux, Marcy l'Etoile, France). […] In Table 2 below, S, I, and R are the results obtained by evaluating susceptibility to the antibacterial agents, in which ‘S’ means susceptible, ‘I’ means intermediate, and ‘R’ means resistant.
Strain identification was performed using a kit such as ATB 32 GN system (bioMédrieux, Marcy l'Etoile, France). […] In Table 6 below, S, I, and R are the results obtained by evaluating susceptibility to the antibacterial agents, in which ‘S’ means susceptible, ‘I’ means intermediate, and ‘R’ means resistant.
Strain identification was performed using a kit such as ATB 32 GN system (bioMérieux, Marcy l'Etoile, France). […] In Table 10 below, S, I, and R are the results obtained by evaluating susceptibility to the antibacterial agents, in which ‘S’ means susceptible, T means intermediate, and ‘R’ means resistant.

Substance: gentamicin
- antibiotic susceptibility value (host strain YMC16/01/R353): 16
- susceptibility category (S/I/R) (host strain YMC16/01/R353): R
- susceptibility test value (number given before S/I/R) (host strain YMC16/01/R353): 16
- antibiotic susceptibility S/I/R (host strain YMC16/01/R380): R
- antibiotic susceptibility value (host strain YMC16/01/R380): 16
- susceptibility category (S/I/R) (host strain YMC16/01/R380): R
- susceptibility test value (number given before S/I/R) (host strain YMC16/01/R380): 16
- antibiotic susceptibility S/I/R (host strain YMC16/01/R397): R
- antibiotic susceptibility value (host strain YMC16/01/R397): 16
- susceptibility category (S/I/R) (host strain YMC16/01/R397): R
- susceptibility test value (number given before S/I/R) (host strain YMC16/01/R397): 16
- antibiotic susceptibility S/I/R (host strain YMC16/01/R405): R
- antibiotic susceptibility value (host strain YMC16/01/R405): 16
- susceptibility category (S/I/R) (host strain YMC16/01/R405): R
- susceptibility test value (number given before S/I/R) (host strain YMC16/01/R405): 16
- antibiotic susceptibility S/I/R (host strain YMC16/03/R4461): R
- antibiotic susceptibility value (host strain YMC16/03/R4461): 16
- susceptibility category (S/I/R) (host strain YMC16/03/R4461): R
- susceptibility test value (number given before S/I/R) (host strain YMC16/03/R4461): 16
- antibiotic susceptibility S/I/R (host strain YMC16/05/R2210): R
- antibiotic susceptibility value (host strain YMC16/05/R2210): 16
- susceptibility category (S/I/R) (host strain YMC16/05/R2210): R
- susceptibility test value (number given before S/I/R) (host strain YMC16/05/R2210): 16
- antibiotic susceptibility S/I/R (host strain YMC16/07/R2512): R
- antibiotic susceptibility value (host strain YMC16/07/R2512): 16
- susceptibility category (S/I/R) (host strain YMC16/07/R2512): R
- susceptibility test value (number given before S/I/R) (host strain YMC16/07/R2512): 16
- antibiotic susceptibility S/I/R (host strain YMC16/09/R2471): R
- antibiotic susceptibility value (host strain YMC16/09/R2471): 16
- susceptibility category (S/I/R) (host strain YMC16/09/R2471): R
- susceptibility test value (number given before S/I/R) (host strain YMC16/09/R2471): 16
- antibiotic susceptibility S/I/R (host strain YMC16/10/R2537): R
- antibiotic susceptibility value (host strain YMC16/10/R2537): 16
- susceptibility category (S/I/R) (host strain YMC16/10/R2537): R
- susceptibility test value (number given before S/I/R) (host strain YMC16/10/R2537): 16
- antibiotic susceptibility S/I/R (host strain YMC16/12/B11422): R
- antibiotic susceptibility value (host strain YMC16/12/B11422): 16
- susceptibility category (S/I/R) (host strain YMC16/12/B11422): R
- susceptibility test value (number given before S/I/R) (host strain YMC16/12/B11422): 16
- antibiotic susceptibility S/I/R (host strain YMC16/12/B11449): R
- antibiotic susceptibility value (host strain YMC16/12/B11449): 16
- susceptibility category (S/I/R) (host strain YMC16/12/B11449): R
- susceptibility test value (number given before S/I/R) (host strain YMC16/12/B11449): 16
- antibiotic susceptibility S/I/R (host strain YMC16/12/B13325): R
- antibiotic susceptibility value (host strain YMC16/12/B13325): 16
- susceptibility category (S/I/R) (host strain YMC16/12/B13325): R
- susceptibility test value (number given before S/I/R) (host strain YMC16/12/B13325): 16
- antibiotic susceptibility S/I/R (host strain YMC16/12/P503): R
- antibiotic susceptibility value (host strain YMC16/12/P503): 16
- susceptibility category (S/I/R) (host strain YMC16/12/P503): R
- susceptibility test value (number given before S/I/R) (host strain YMC16/12/P503): 16
- antibiotic susceptibility S/I/R (host strain YMC16/12/R4637): R
- antibiotic susceptibility value (host strain YMC16/12/R4637): 16
- susceptibility category (S/I/R) (host strain YMC16/12/R4637): R
- susceptibility test value (number given before S/I/R) (host strain YMC16/12/R4637): 16
- antibiotic susceptibility S/I/R (host strain YMC17/01/B8053): R
- antibiotic susceptibility value (host strain YMC17/01/B8053): 16
- susceptibility category (S/I/R) (host strain YMC17/01/B8053): R
- susceptibility test value (number given before S/I/R) (host strain YMC17/01/B8053): 16
- antibiotic susceptibility S/I/R (host strain YMC17/01/B10087): R
- antibiotic susceptibility value (host strain YMC17/01/B10087): 16
- susceptibility category (S/I/R) (host strain YMC17/01/B10087): R
- susceptibility test value (number given before S/I/R) (host strain YMC17/01/B10087): 16
- antibiotic susceptibility S/I/R (host strain YMC17/01/B12075): S
- antibiotic susceptibility value (host strain YMC17/01/B12075): 1
- susceptibility category (S/I/R) (host strain YMC17/01/B12075): S
- susceptibility test value (number given before S/I/R) (host strain YMC17/01/B12075): 1
- antibiotic susceptibility S/I/R (host strain YMC17/01/B13454): R
- antibiotic susceptibility value (host strain YMC17/01/B13454): 16
- susceptibility category (S/I/R) (host strain YMC17/01/B13454): R
- susceptibility test value (number given before S/I/R) (host strain YMC17/01/B13454): 16
- antibiotic susceptibility S/I/R (host strain YMC17/01/P518): R
- antibiotic susceptibility value (host strain YMC17/01/P518): 16
- susceptibility category (S/I/R) (host strain YMC17/01/P518): R
- susceptibility test value (number given before S/I/R) (host strain YMC17/01/P518): 16
- antibiotic susceptibility S/I/R (host strain YMC17/01/R2812): R
- antibiotic susceptibility value (host strain YMC17/01/R2812): 16
- susceptibility category (S/I/R) (host strain YMC17/01/R2812): R
- susceptibility test value (number given before S/I/R) (host strain YMC17/01/R2812): 16
- antibiotic susceptibility S/I/R (host strain YMC17/02/B14): R
- antibiotic susceptibility value (host strain YMC17/02/B14): 16
- susceptibility category (S/I/R) (host strain YMC17/02/B14): R
- susceptibility test value (number given before S/I/R) (host strain YMC17/02/B14): 16
- antibiotic susceptibility S/I/R (host strain YMC17/02/B87): S
- antibiotic susceptibility value (host strain YMC17/02/B87): 2
- susceptibility category (S/I/R) (host strain YMC17/02/B87): S
- susceptibility test value (number given before S/I/R) (host strain YMC17/02/B87): 2
- antibiotic susceptibility S/I/R (host strain YMC17/02/B721): R
- antibiotic susceptibility value (host strain YMC17/02/B721): 16
- susceptibility category (S/I/R) (host strain YMC17/02/B721): R
- susceptibility test value (number given before S/I/R) (host strain YMC17/02/B721): 16
- antibiotic susceptibility S/I/R (host strain YMC17/02/B4039): R
- antibiotic susceptibility value (host strain YMC17/02/B4039): 16
- susceptibility category (S/I/R) (host strain YMC17/02/B4039): R
- susceptibility test value (number given before S/I/R) (host strain YMC17/02/B4039): 16
- antibiotic susceptibility S/I/R (host strain YMC17/02/B4520): R
- antibiotic susceptibility value (host strain YMC17/02/B4520): 16
- susceptibility category (S/I/R) (host strain YMC17/02/B4520): R
- susceptibility test value (number given before S/I/R) (host strain YMC17/02/B4520): 16
- antibiotic susceptibility S/I/R (host strain YMC17/02/B4864): S
- antibiotic susceptibility value (host strain YMC17/02/B4864): 1
- susceptibility category (S/I/R) (host strain YMC17/02/B4864): S
- susceptibility test value (number given before S/I/R) (host strain YMC17/02/B4864): 1
- antibiotic susceptibility S/I/R (host strain YMC17/02/B8414): R
- antibiotic susceptibility value (host strain YMC17/02/B8414): 16
- susceptibility category (S/I/R) (host strain YMC17/02/B8414): R
- susceptibility test value (number given before S/I/R) (host strain YMC17/02/B8414): 16
- antibiotic susceptibility S/I/R (host strain YMC17/02/P523): S
- antibiotic susceptibility value (host strain YMC17/02/P523): 4
- susceptibility category (S/I/R) (host strain YMC17/02/P523): S
- susceptibility test value (number given before S/I/R) (host strain YMC17/02/P523): 4
- antibiotic susceptibility S/I/R (host strain YMC17/02/R541): R
- antibiotic susceptibility value (host strain YMC17/02/R541): 16
- susceptibility category (S/I/R) (host strain YMC17/02/R541): R
- susceptibility test value (number given before S/I/R) (host strain YMC17/02/R541): 16
- antibiotic susceptibility S/I/R (host strain YMC17/02/R2392): R
- antibiotic susceptibility value (host strain YMC17/02/R2392): 16
- susceptibility category (S/I/R) (host strain YMC17/02/R2392): R
- susceptibility test value (number given before S/I/R) (host strain YMC17/02/R2392): 16
- antibiotic susceptibility S/I/R (host strain YMC17/03/B4730): R
- antibiotic susceptibility value (host strain YMC17/03/B4730): 16
- susceptibility category (S/I/R) (host strain YMC17/03/B4730): R
- susceptibility test value (number given before S/I/R) (host strain YMC17/03/B4730): 16
- antibiotic susceptibility S/I/R (host strain YMC17/03/B5000): R
- antibiotic susceptibility value (host strain YMC17/03/B5000): 16
- susceptibility category (S/I/R) (host strain YMC17/03/B5000): R
- susceptibility test value (number given before S/I/R) (host strain YMC17/03/B5000): 16
- antibiotic susceptibility S/I/R (host strain YMC17/03/P971): R
- antibiotic susceptibility value (host strain YMC17/03/P971): 16
- susceptibility category (S/I/R) (host strain YMC17/03/P971): R
- susceptibility test value (number given before S/I/R) (host strain YMC17/03/P971): 16
- antibiotic susceptibility S/I/R (host strain YMC17/03/R348): R
- antibiotic susceptibility value (host strain YMC17/03/R348): 16
- susceptibility category (S/I/R) (host strain YMC17/03/R348): R
- susceptibility test value (number given before S/I/R) (host strain YMC17/03/R348): 16
- antibiotic susceptibility S/I/R (host strain YMC17/03/R585): R
- antibiotic susceptibility value (host strain YMC17/03/R585): 16
- susceptibility category (S/I/R) (host strain YMC17/03/R585): R
- susceptibility test value (number given before S/I/R) (host strain YMC17/03/R585): 16
- antibiotic susceptibility S/I/R (host strain YMC17/03/R1888): R
- antibiotic susceptibility value (host strain YMC17/03/R1888): 16
- susceptibility category (S/I/R) (host strain YMC17/03/R1888): R
- susceptibility test value (number given before S/I/R) (host strain YMC17/03/R1888): 16
- antibiotic susceptibility S/I/R (host strain YMC17/03/R3279): R
- antibiotic susceptibility value (host strain YMC17/03/R3279): 16
- susceptibility category (S/I/R) (host strain YMC17/03/R3279): R
- susceptibility test value (number given before S/I/R) (host strain YMC17/03/R3279): 16
- antibiotic susceptibility S/I/R (host strain YMC17/03/R4077): R
- antibiotic susceptibility value (host strain YMC17/03/R4077): 16
- susceptibility category (S/I/R) (host strain YMC17/03/R4077): R
- susceptibility test value (number given before S/I/R) (host strain YMC17/03/R4077): 16
- antibiotic susceptibility S/I/R (host strain YMC17/03/R4607): R
- antibiotic susceptibility value (host strain YMC17/03/R4607): 16
- susceptibility category (S/I/R) (host strain YMC17/03/R4607): R
- susceptibility test value (number given before S/I/R) (host strain YMC17/03/R4607): 16
- antibiotic susceptibility S/I/R (host strain YMC17/04/R488): R
- antibiotic susceptibility value (host strain YMC17/04/R488): 16
- susceptibility category (S/I/R) (host strain YMC17/04/R488): R
- susceptibility test value (number given before S/I/R) (host strain YMC17/04/R488): 16
- antibiotic susceptibility S/I/R (host strain YMC17/04/R640): R
- antibiotic susceptibility value (host strain YMC17/04/R640): 16
- susceptibility category (S/I/R) (host strain YMC17/04/R640): R
- susceptibility test value (number given before S/I/R) (host strain YMC17/04/R640): 16
- antibiotic susceptibility S/I/R (host strain YMC/17/05/R1095): R
- antibiotic susceptibility value (host strain YMC/17/05/R1095): 16
- susceptibility category (S/I/R) (host strain YMC/17/05/R1095): R
- susceptibility test value (number given before S/I/R) (host strain YMC/17/05/R1095): 16
